In US8552023B2, “Non-amidic linkers with branched termini as CGRP receptor antagonists” (Merck Sharp & Dohme Corp., priority 2008, dated 2013):

Target: recombinant human CL receptor/RAMP1 (Homo sapiens (Human), UniProt O60894+Q16602)
Experiment: Human CGRP receptor binding (recombinant receptor binding assay, 125I-hCGRP)
Settings: read-out: Human CGRP receptor binding Ki
Procedure: RECOMBINANT RECEPTOR: Human CL receptor (Genbank accession number L76380) was subcloned into the expression vector pIREShyg2 (BD Biosciences Clontech) as a 5′NheI and 3′ PmeI fragment. Human RAMP1 (Genbank accession number AJ001014) was subcloned into the expression vector pIRESpuro2 (BD Biosciences Clontech) as a 5′NheI and 3′NotI fragment. HEK 293 cells (human embryonic kidney cells; ATCC #CRL-1573) were cultured in DMEM with 4.5 g/L glucose, 1 mM sodium pyruvate and 2 mM glutamine supplemented with 10% fetal bovine serum (FBS), 100 units/mL penicillin and 100 μg/mL streptomycin, and maintained at 37° C. and 95% humidity. Cells were subcultured by treatment with 0.25% trypsin with 0.1% EDTA in HBSS. Stable cell line generation was accomplished by co-transfecting 10 μg of DNA with 30 μg Lipofectamine 2000 (Invitrogen) in 75 cm^2 flasks. CL receptor and RAMP1 expression constructs were co-transfected in equal amounts. Twenty-four hours after transfection the cells were diluted and selective medium (growth medium+300 μg/mL hygromycin and 1 μg/mL puromycin) was added the following day. A clonal cell line was generated by single cell deposition utilizing a FACS Vantage SE (Becton Dickinson). Growth medium was adjusted to 150 μg/mL hygromycin and 0.5 μg/mL puromycin for cell propagation.
The cell suspension was disrupted with a laboratory homogenizer and centrifuged at 48,000 g to isolate membranes. The pellets were resuspended in harvest buffer plus 250 mM sucrose and stored at −70° C. For binding assays, 20 μg of membranes were incubated in 1 ml binding buffer (10 mM HEPES, pH 7.4, 5 mM MgCl2, and 0.2% BSA) for 3 hours at room temperature containing 10 pM ^125I-hCGRP (GE Healthcare) and antagonist. The assay was terminated by filtration through 96-well GFB glass fiber filter plates (PerkinElmer) that had been blocked with 0.05% polyethyleneimine. The filters were washed 3 times with ice-cold assay buffer (10 mM HEPES, pH 7.4 and 5 mM MgCl2). Scintillation fluid was added and the plates were counted on a Topcount (Packard). Non-specific binding was determined and the data analysis was carried out with the apparent dissociation constant (Ki) determined by using a non-linear least squares fitting the bound CPM data to the equation below: […]

Sequence of recombinant human CL receptor/RAMP1 (Q16602 23-461): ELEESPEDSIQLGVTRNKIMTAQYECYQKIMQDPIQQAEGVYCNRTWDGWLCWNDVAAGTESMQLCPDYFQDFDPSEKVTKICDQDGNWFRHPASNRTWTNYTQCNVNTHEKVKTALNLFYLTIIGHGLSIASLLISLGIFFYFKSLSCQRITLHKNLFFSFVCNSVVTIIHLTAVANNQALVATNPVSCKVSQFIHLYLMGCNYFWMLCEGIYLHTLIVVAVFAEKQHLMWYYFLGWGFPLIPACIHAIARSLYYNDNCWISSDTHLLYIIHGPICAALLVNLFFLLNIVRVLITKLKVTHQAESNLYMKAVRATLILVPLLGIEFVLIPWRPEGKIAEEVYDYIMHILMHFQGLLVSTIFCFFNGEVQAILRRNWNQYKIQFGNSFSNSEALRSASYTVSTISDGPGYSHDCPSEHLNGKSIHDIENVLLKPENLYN
Sequence of recombinant human CL receptor/RAMP1 (O60894 27-148): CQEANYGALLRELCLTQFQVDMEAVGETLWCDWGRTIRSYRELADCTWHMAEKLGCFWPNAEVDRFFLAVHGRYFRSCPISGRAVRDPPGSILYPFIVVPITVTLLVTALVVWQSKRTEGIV

| Ki | Compound |
| --- | --- |
| 20 nM | CC(C)(C)C(=O)N(CC#Cc1ccc2c(c1)CC1(C2)C(=O)Nc2ncccc21)Cc1ccccc1 (centres unmarked) [Example 1, N-Benzyl-2,2-dimethyl-N-[3-(2′-oxo-1,1′,2′,3-tetrahydrospiro[indene-2,3′-pyrrolo[2,3-b]pyridin]-5-yl)prop-2-yn-1-yl]propanamide] |
| 45 nM | CC(C)(C)C(=O)N(CCCc1ccc2c(c1)CC1(C2)C(=O)Nc2ncccc21)Cc1ccccc1 (centres unmarked) [Example 2, N-benzyl-2,2-dimethyl-N-[3-(2′-oxo-1,1′,2′,3-tetrahydrospiro[indene-2,3′-pyrrolo[2,3-b]pyridin]-5-yl)propyl]propanamide] |
| 0.06 nM | CC(C)(CF)C(=O)N(C/C=C/c1cnc2c(c1)C[C@@]1(C2)C(=O)Nc2ncccc21)[C@@H]1CCc2ccccc21 [Example 3, N-[(1R)-2,3-dihydro-1H-inden-1-yl]-3-fluoro-2,2-dimethyl-N-{(2E)-3-[(6S)-2′-oxo-1′,2′,5,7-tetrahydrospiro[cyclopenta[b]pyridine-6,3′-pyrrolo[2,3-b]pyridin]-3-yl]prop-2-en-1-yl}propanamide] |

Same assay, conditions: read-out: Ki

| Ki | Compound |
| --- | --- |
| 0.065 nM | C[C@H](c1cc(F)cc(F)c1)N(C/C=C/c1cnc2c(c1)C[C@@]1(C2)C(=O)Nc2ncccc21)C(=O)C(C)(C)CCl [Example 6] |
| 0.041 nM | C[C@H](c1cc(F)cc(F)c1)N(C/C=C/c1cnc2c(c1)C[C@@]1(C2)C(=O)Nc2ncccc21)C(=O)C(C)(C)CF [Example 7] |
| 0.43 nM | C[C@H](c1cc(F)cc(F)c1)N(C/C=C/c1ccc2c(c1)C[C@@]1(C2)C(=O)NC(=O)N1C)C(=O)C(C)(C)C [Example 8] |
| 0.05 nM | C[C@H](c1cc(F)cc(F)c1)N(C/C=C/c1cnc2c(c1)C[C@@]1(C2)C(=O)Nc2ncccc21)C(=O)C1(C(F)(F)F)CC1 [Example 11] |
| 0.13 nM | Cc1ccc([C@@H](C)N(C/C=C/c2cnc3c(c2)C[C@@]2(C3)C(=O)Nc3ncccc32)C(=O)C(C)(C)C)cc1F [Example 13] |
